Source: PubChem BioAssay AID1963975 (Molecular Pharmacology Branch, DTP, NCI, 2024)

Test system: 624824-186-R-J2-PDC multicell spheroids, viability
Assay: Anticancer human tumor 624824-186-R-J2-PDC patient-derived colon adenocarcinoma cell line growth inhibition [PI3K]
Conditions: for IC50: curve of first compound; for viability, T/C: stronger effect = lower value; active = viability on the fitted dose curve at most 10% of control; inactive = the rest
Description: Combinatorial screen of targeted agents with the PI3K inhibitors inavolisib, alpelisib, duvelisib, and copanlisib in multi-cell type tumor spheroids
A high-throughput screen of multi-cell type tumor spheroids was designed to identify active combinations of targeted small molecules and PI3K pathway inhibitors. Complex spheroids include a stromal component modeled by human endothelial cells (HUVEC) and fibroblasts modeled by human mesenchymal stem cells (MSCs). The concentration ranges selected for each drug and investigational agent were based upon clinically achievable concentrations if the clinical Cmax of the agent was known.
Compounds. The drugs and investigational agents: inavolisib (NSC800729), alpelisib (NSC765974), duvelisib (NSC772469), copanlisib (NSC816437), ipatasertib (NSC767898), afuresertib (NSC778305), talazoparib (NSC767125), sapanisertib (NSC764658), selumetinib (NSC741078), tovorafenib (DAY101, NSC766906), vemurafenib (NSC761431), ravoxertinib (NSC781343), sotorasib (NSC818433), MRTX1133 (NSC 836407), abemaciclib (NSC 768073), palbociclib (NSC758247), venetoclax (NSC 766270), SY5609 (NSC837396), enzalutamide (NSC755605), and darolutamide (NSC825331), were obtained from the National Cancer Institute (NCI) Developmental Therapeutics Program Chemical Repository. The FDA-approved anticancer drug set is available from the NCI Developmental Therapeutics Program. […] The stock solutions were prepared in dimethyl sulfoxide (DMSO, Sigma-Aldrich, St. Louis, MO, cat. D2650) at 800-fold the tested concentration and stored at -70 degrees C prior to their use. All drugs and investigational agents were tested over a range starting from a high concentration at or near the clinical Cmax and decreasing in half-log increments. If the clinical Cmax for an agent had not been determined, the highest concentration tested was 10 microM.
Cell Culture. All cells were maintained in an incubator at 37 degrees C and 5% CO2 with 95% humidity. The PDC lines were cultured according to standard operating procedures established by the NCI PDMR (https://pdmr.cancer.gov/sops/default.htm). All PDCs were thawed and cultured in Matrigel-coated flasks prepared with a working solution of 1X Ham's F-12 nutrient mix, without supplementation (Invitrogen, Waltham, MA, cat. 11765054), 100 U/mL penicillin-streptomycin (Invitrogen, cat. 15140122), and 2.5% Matrigel (Corning Inc., Corning, NY, cat. 354248) for the first three passages. The 354836-022-R-J1-PDC, 475296-252-R-J1-PDC, and 997726-040-R-J2-PDC lines were cultured in 6A media, which includes advanced DMEM/F-12 (Thermo Fisher Scientific, cat. 12634028), 10 mM HEPES (Thermo Fisher Scientific, cat. 15630080), 1X GlutaMAX supplement (Thermo Fisher Scientific, cat. 35050061), 0.1 mg/mL primocin (InvivoGen, San Diego, CA, cat. ant-pm-2), 10% defined fetal bovine serum, heat inactivated (HyClone Laboratories Inc., Logan, UT, cat. SH30070.03HI), 50% L-WRN conditioned media (ATCC, cat. CRL-3276), 1.25 mM N-Acetyl-L-cysteine (Sigma-Aldrich, cat. A9165), 10 mM nicotinamide (Sigma-Aldrich, cat. N0636), 1X B-27 supplement (Thermo Fisher Scientific, cat. 17504044), 1X N-2 supplement (Thermo Fisher Scientific, cat. 17502048), and 10 microM Y-27632 dihydrochloride (Tocris Bioscience, Bristol, United Kingdom, cat. 1254). The 624824-186-R-J2-PDC line was cultured in 6C/Colon 1B media, which includes all 6A media components plus 50 ng/mL human EGF recombinant protein (Thermo Fisher Scientific, cat. PHG0311). […]

[1] = second compound 0.00316 µM, first compound 0.0316 µM
[2] = second compound 0.00316 µM, first compound 0.1 µM
[3] = second compound 0.01 µM, first compound 0.0316 µM
[4] = second compound 0.01 µM, first compound 0.1 µM
[5] = second compound 0.0316 µM, first compound 0.0316 µM
[6] = second compound 0.0316 µM, first compound 0.1 µM
[7] = second compound 0.1 µM, first compound 0.0316 µM
[8] = second compound 0.1 µM, first compound 0.1 µM
[9] = second compound 0.316 µM, first compound 0.0316 µM
[10] = second compound 0.316 µM, first compound 0.1 µM
[11] = second compound 1 µM, first compound 0.0316 µM
[12] = second compound 1 µM, first compound 0.1 µM
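Note: spheroids exposed to agents for 7 days before viability read.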
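Throughout, for viability, T/C: 100% = DMSO vehicle treated spheroids.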

CC(C)n1nc(-c2ccc3oc(N)nc3c2)c2c(N)ncnc21 + CC(Nc1ccc2c(c1)OCCn1cc(N3C(=O)OCC3C(F)F)nc1-2)C(N)=O
inactive: viability, T/C (second compound 0.00316 µM, first compound 0.000316 µM) 74% | viability, T/C (second compound 0.00316 µM, first compound 0.001 µM) 86.9% | viability, T/C (second compound 0.00316 µM, first compound 0.00316 µM) 95.5% | viability, T/C (second compound 0.00316 µM, first compound 0.01 µM) 92.1% | viability, T/C [1] 89.2% | viability, T/C [2] 87.5% | viability, T/C (second compound 0.01 µM, first compound 0.000316 µM) 106% | viability, T/C (second compound 0.01 µM, first compound 0.001 µM) 110% | viability, T/C (second compound 0.01 µM, first compound 0.00316 µM) 107% | viability, T/C (second compound 0.01 µM, first compound 0.01 µM) 86.8% | viability, T/C [3] 105% | viability, T/C [4] 87.2% | viability, T/C (second compound 0.0316 µM, first compound 0.000316 µM) 83.5% | viability, T/C (second compound 0.0316 µM, first compound 0.001 µM) 81.4% | viability, T/C (second compound 0.0316 µM, first compound 0.00316 µM) 67.6% | viability, T/C (second compound 0.0316 µM, first compound 0.01 µM) 78.1% | viability, T/C [5] 91.9% | viability, T/C [6] 90.4% | viability, T/C (second compound 0.1 µM, first compound 0.000316 µM) 88.3% | viability, T/C (second compound 0.1 µM, first compound 0.001 µM) 96.8% | viability, T/C (second compound 0.1 µM, first compound 0.00316 µM) 96.8% | viability, T/C (second compound 0.1 µM, first compound 0.01 µM) 68.4% | viability, T/C [7] 84.5% | viability, T/C [8] 92.5% | viability, T/C (second compound 0.316 µM, first compound 0.000316 µM) 74.9% | viability, T/C (second compound 0.316 µM, first compound 0.001 µM) 96.1% | viability, T/C (second compound 0.316 µM, first compound 0.00316 µM) 78.7% | viability, T/C (second compound 0.316 µM, first compound 0.01 µM) 72.3% | viability, T/C [9] 82.2% | viability, T/C [10] 75.4% | viability, T/C (second compound 1 µM, first compound 0.000316 µM) 97% | viability, T/C (second compound 1 µM, first compound 0.001 µM) 78.9% | viability, T/C (second compound 1 µM, first compound 0.00316 µM) 85% | viability, T/C (second compound 1 µM, first compound 0.01 µM) 88.5% | viability, T/C [11] 84.1% | viability, T/C [12] 72%
> 0.1 µM: IC50 (second compound 0.00316 µM) | IC50 (second compound 0.01 µM) | IC50 (second compound 0.0316 µM) | IC50 (second compound 0.1 µM) | IC50 (second compound 0.316 µM) | IC50 (second compound 1 µM)

CC1(C)CCC(CN2CCN(c3ccc(C(=O)NS(=O)(=O)c4ccc(NCC5CCOCC5)c([N+](=O)[O-])c4)c(Oc4cnc5[nH]ccc5c4)c3)CC2)=C(c2ccc(Cl)cc2)C1 + CC(Nc1ccc2c(c1)OCCn1cc(N3C(=O)OCC3C(F)F)nc1-2)C(N)=O
> 10 µM: IC50 (second compound 0.00316 µM) | IC50 (second compound 0.01 µM) | IC50 (second compound 0.0316 µM) | IC50 (second compound 0.1 µM) | IC50 (second compound 0.316 µM) | IC50 (second compound 1 µM)
inactive: viability, T/C [1] 88.5% | viability, T/C [2] 86.8% | viability, T/C (second compound 0.00316 µM, first compound 0.316 µM) 104% | viability, T/C (second compound 0.00316 µM, first compound 1 µM) 96.9% | viability, T/C (second compound 0.00316 µM, first compound 3.16 µM) 89.1% | viability, T/C (second compound 0.00316 µM, first compound 10 µM) 77.4% | viability, T/C [3] 93.3% | viability, T/C [4] 81.3% | viability, T/C (second compound 0.01 µM, first compound 0.316 µM) 123% | viability, T/C (second compound 0.01 µM, first compound 1 µM) 93.7% | viability, T/C (second compound 0.01 µM, first compound 3.16 µM) 75.5% | viability, T/C (second compound 0.01 µM, first compound 10 µM) 69% | viability, T/C [5] 81.4% | viability, T/C [6] 90.5% | viability, T/C (second compound 0.0316 µM, first compound 0.316 µM) 99.9% | viability, T/C (second compound 0.0316 µM, first compound 1 µM) 72.7% | viability, T/C (second compound 0.0316 µM, first compound 3.16 µM) 74.5% | viability, T/C (second compound 0.0316 µM, first compound 10 µM) 79.1% | viability, T/C [7] 72.7% | viability, T/C [8] 66.9% | viability, T/C (second compound 0.1 µM, first compound 0.316 µM) 79.1% | viability, T/C (second compound 0.1 µM, first compound 1 µM) 66.9% | viability, T/C (second compound 0.1 µM, first compound 3.16 µM) 81.1% | viability, T/C (second compound 0.1 µM, first compound 10 µM) 56.6% | viability, T/C [9] 79.6% | viability, T/C [10] 74.2% | viability, T/C (second compound 0.316 µM, first compound 0.316 µM) 94.9% | viability, T/C (second compound 0.316 µM, first compound 1 µM) 77.4% | viability, T/C (second compound 0.316 µM, first compound 3.16 µM) 79.1% | viability, T/C (second compound 0.316 µM, first compound 10 µM) 63% | viability, T/C [11] 87.1% | viability, T/C [12] 93.3% | viability, T/C (second compound 1 µM, first compound 0.316 µM) 79.3% | viability, T/C (second compound 1 µM, first compound 1 µM) 86% | viability, T/C (second compound 1 µM, first compound 3.16 µM) 94.4% | viability, T/C (second compound 1 µM, first compound 10 µM) 77.8%
